Measured values reported in patent publication US20240350458A1, “14-3-3 PROTEIN MODULATORS AS ANTITUMOR AGENTS” (priority 2021, published 2024).

Tests used:
FARAGE = assay: MTT proliferation assay, B-cell lymphoma cell line; format: cell-based; details: 72 h of drug incubation
Procedure: (§1) All the above compounds were tested in vitro for their anticancer activity against a panel of eight B-cell lymphoma cell lines by MTT proliferation assay. The tested cell lines belonging to mantle cell lymphoma (MCL: REC1, Z138), activated B-cell diffuse large B-cell lymphoma (ABC-DLBCL: R11, HBL1, U2932, TMD8), germinal center B-cell diffuse large B-cell lymphoma (GCB-DLBCL: SU-DHL-10, FARAGE) subtypes. In overall, MCL cell lines present Cyclin D1 overexpression, while ABC- and GCB-DLBCL's proliferation is BCR and BCL6/HDACs driven, respectively. At the RNA level, all tested lymphoma cell lines were characterized by an overexpression of 14-3-3 zeta as reported for B-cell lymphomas resistant to chemotherapeutic regimen.

HBL1 = assay: MTT proliferation assay, B-cell lymphoma cell line; format: cell-based; details: HBL1, 72 h of drug incubation
Procedure: as §1

REC1 = assay: MTT proliferation assay, B-cell lymphoma cell line; format: cell-based; details: Homo sapiens; REC1, 72 h of drug incubation
Procedure: as §1

RI1 = assay: MTT proliferation assay, B-cell lymphoma cell line; format: cell-based; details: Ri-1; RI1, 72 h of drug incubation
Procedure: as §1

SUDHL10 = assay: MTT proliferation assay, B-cell lymphoma cell line; format: cell-based; details: Homo sapiens, SU-DHL10; SUDHL10, 72 h of drug incubation
Procedure: as §1

TMD8 = assay: MTT proliferation assay, B-cell lymphoma cell line; format: cell-based; details: Homo sapiens; TMD8, 72 h of drug incubation
Procedure: as §1

U2932 = assay: MTT proliferation assay, B-cell lymphoma cell line; format: cell-based; details: Homo sapiens; U2932, 72 h of drug incubation
Procedure: as §1

Z138 = assay: MTT proliferation assay, B-cell lymphoma cell line; format: cell-based; details: Homo sapiens, Z-138; Z138, 72 h of drug incubation
Procedure: as §1

[1] = test system: ATC-derived cell lines (Sw, FRO, 8505c); assay: MTT proliferation assay, three ATC-derived cell lines; format: cell-based; details: Homo sapiens; three ATC-derived cell lines (Sw, FRO, 8505c), 72 h; read-out: IC50 value after 72 h exposure
Procedure: (§2) The antiproliferative activity was assessed by MTT proliferation assay (Table III) The anticancer activity was also investigated in a rare and lethal cancer (i.e. anaplastic thyroid cancer) by the use of three ATC-derived cell lines (Sw, FRO, 8505c). Again, the IC50 value after 72 h exposure was in the range of 10 to 50 nM. The same trend was also observed in four melanoma cell lines A2058, M14 (genotype BRAFV600E), SKMEL 197 e MEWO (genotype BRAF wild-type).

HCT-116 = assay: MTT proliferation assay, colon cancer; format: cell-based; details: Homo sapiens
Procedure: as §2
(§3) Table III IC50 expressed in μM and Emax (at 30 μM) for FC86 after 72 h exposure, were calculated by MTT assay

NCI-H69 = assay: MTT proliferation assay, SCLC; format: cell-based; details: Homo sapiens
Procedure: as §2, §3

NCI-H82 = assay: MTT proliferation assay, SCLC; format: cell-based; details: Homo sapiens
Procedure: as §2, §3

A2058 = assay: Antiproliferative activity, melanoma cell line; format: cell-based; details: Homo sapiens; melanoma A2058 (BRAFV600E); read-out: IC50 (95% confidence interval)
Procedure: as §2

M14 = assay: Antiproliferative activity, melanoma cell line; format: cell-based; details: Homo sapiens; melanoma M14 (BRAFV600E); read-out: IC50 (95% confidence interval)
Procedure: as §2

MEWO = assay: Antiproliferative activity, melanoma cell line; format: cell-based; details: Homo sapiens; melanoma MEWO (BRAF wild-type); read-out: IC50 (95% confidence interval)
Procedure: as §2

SKMEL 197 = assay: Antiproliferative activity, melanoma cell line; format: cell-based; details: melanoma SKMEL 197 (BRAF wild-type); read-out: IC50 (95% confidence interval)
Procedure: as §2

[2] = test system: CYP450 (CYP1A2, CYP2C9, CYP2C19, CYP2D6, CYP3A4); assay: CYP450 inhibition (ADME-TOX profiling); format: in vitro ADME; details: 10 μM
Procedure: To assess the ADME-TOX profile of selected compounds (FC91, FC86, FC85, a full panel of in vitro assays was performed as reported in Runfola et al. [Runfola M, Sestito S, Gul S, Chiellini G, Rapposelli S: Collecting data through high throughput in vitro early toxicity and off-target liability assays to rapidly identify limitations of novel thyromimetics. Data in brief 2020, 29:105206.]. Cytotoxic effects were evaluated on 4 different cell lines (U2OS, hTERT, HEK293, MCF-7) at 24 h and 48 h after treatment with tested compounds. Cardiac toxicity was assessed evaluating the inhibition effect of compounds on the hERG ion-channel, which is responsible of the withdrawn of several drugs in clinical trials. Metabolic interference was evaluated testing inhibitory effects of new compounds on five isoforms of CYP450 (CYP1A2, CYP2C9, CYP2C19, CYP2D6, CYP3A4). To assess off-target liabilities, the inhibitory effects have been assessed against several well-known off-targets. In particular, HDAC4, HDAC6, HDAC8, HDAC9, and SIRT7 were chosen as representatives of an undesirable epigenetic modulation. Moreover, compounds were screened against phosphodiesterase (PDE4C1), known for its role in cell survival and tumorigenesis. […] The data were collected and analyzed in the form of a traffic-light system using criteria shown below.

[3] = test system: human lymphoma cell line TMD8; assay: Lymphoma xenograft in Nod-Scid mice; format: in vivo; details: 100 mg/kg oral gavage once daily, five times per week
Procedure: FIG. 6 reports ADME-TOX profiling of compounds FC91, FC85, and FC86 as explained in example 7 FIG. 7 reports the inhibition of the compound FC86 on tumor growth in xenograft models of lymphoma (TMD8 engrafted in NOD-Scid mice); vehicle group (blue line), n=9 mice; FC86 treated group (red line), n=9 mice (Example 8). Tumor volume expressed in cubic mm plus SEM (Student t-test); p<0.01.
To this purpose, the compound was administered by oral gavage to Nod-Scid mice engrafted with the human lymphoma cell line TMD8 (15 millions of cells in 100 uL PBS/mouse). […] Body conditions were not affected by the treatments.

Compound Cc1ccc(S(=O)(=O)Nc2ccc3c(c2)/C(=C/c2cccs2)C(=O)N3)cc1 [FC86, N-[(3Z)-2-oxo-3-(thiophene-2-ylmethylidene)-2,3-dihydro-1H-indol-5-yl]-4-methylbenzenesulfonamide] has an IC50 (FARAGE) of 15 nM, an IC50 (HBL1) of 25 nM and an IC50 (REC1) of 10 nM. The IC50 (RI1) was 25 nM, the IC50 (SUDHL10) was 25 nM and the IC50 (TMD8) was 20 nM. The IC50 (U2932) was 20 nM, the IC50 (Z138) was 25 nM and the IC50 [1] was 10 to 50 nM. It also gave an Emax at 30 µM (HCT-116; Colon HCT-116, 30 μM, 72 h) of 62%, an IC50 (HCT-116; Colon HCT-116, 72 h exposure) of 1600 nM and an Emax at 30 µM (NCI-H69; SCLC NCI-H69, 30 μM, 72 h) of 80%. The IC50 (NCI-H69; SCLC NCI-H69, 72 h exposure) was 1400 nM, the Emax at 30 µM (NCI-H82; SCLC NCI-H82, 30 μM, 72 h) was 55% and the IC50 (NCI-H82; SCLC NCI-H82, 72 h exposure) was 3000 nM. The IC50 (A2058) was 28.6 nM, the IC50 (M14) was 14.1 nM and the IC50 (MEWO) was 57 nM. For the same compound, the IC50 (SKMEL 197) was 20.7 nM, the “inhibitory effect on CYP450 isoforms” value [2] was “did not show inhibitory effect” and the body conditions [3] was “not affected”. For the same compound, the “tumor size vs vehicle at the end of the study” value [3] was “two times smaller” and the “tumor growth inhibition” value ([3]; p<0.01) was “significantly inhibit tumor growth”.
